Experimental findings from patent US8871753B2, “Macrocyclic compounds and their use as kinase inhibitors” (Incyte Corporation, priority 2008, dated 2014) are described below.

Structures can show the parent of a compound that is named as a salt. Bounds are passed on as bounds.

What all share (type): biochemical
In assay [1] the target is T1, human JAK3 (a.a. 781-1124) (Homo sapiens, UniProt P52333).
T1 construct: JAK3 (a.a. 781-1124); His tag (N); made in house; host or cells: insect cells (baculovirus)
T1 sequence (P52333 781-1124): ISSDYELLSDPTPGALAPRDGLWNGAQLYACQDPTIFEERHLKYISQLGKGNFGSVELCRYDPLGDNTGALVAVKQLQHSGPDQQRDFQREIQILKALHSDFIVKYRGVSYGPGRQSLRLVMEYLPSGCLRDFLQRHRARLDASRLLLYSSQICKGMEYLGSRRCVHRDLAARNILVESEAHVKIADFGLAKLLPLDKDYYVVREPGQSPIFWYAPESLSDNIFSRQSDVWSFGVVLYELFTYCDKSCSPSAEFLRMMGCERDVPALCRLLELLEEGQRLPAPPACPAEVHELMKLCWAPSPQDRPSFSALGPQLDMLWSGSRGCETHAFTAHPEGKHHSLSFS
As to the kind of experiment: In vitro JAK kinase assay (HTRF, phosphorylation of a biotinylated peptide), JAK3. The settings on record: method AA1 (3 μM ATP) or AA2 (1000 μM ATP), not stated per value. An outline of the steps:
(§1)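 Kinase activity was measured as phosphorylation of a biotinylated peptide, with ATP at 90 μM for JAK1, 30 μM for JAK2 and 3 μM for JAK3. Reactions ran 1 hr at room temperature, were stopped with EDTA plus SA-APC and Eu-Py20, and were read by HTRF after 40 minutes of antibody binding.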
Background: TR-FRET usually uses a lanthanide donor and a delayed reading to cut background.

In assay [2] the target is T2, human JAK2 (a.a. 828-1132) (Homo sapiens, UniProt O60674).
T2 construct: JAK2 (a.a. 828-1132); His tag (N); made in house; host or cells: insect cells (baculovirus)
T2 sequence (O60674 828-1132): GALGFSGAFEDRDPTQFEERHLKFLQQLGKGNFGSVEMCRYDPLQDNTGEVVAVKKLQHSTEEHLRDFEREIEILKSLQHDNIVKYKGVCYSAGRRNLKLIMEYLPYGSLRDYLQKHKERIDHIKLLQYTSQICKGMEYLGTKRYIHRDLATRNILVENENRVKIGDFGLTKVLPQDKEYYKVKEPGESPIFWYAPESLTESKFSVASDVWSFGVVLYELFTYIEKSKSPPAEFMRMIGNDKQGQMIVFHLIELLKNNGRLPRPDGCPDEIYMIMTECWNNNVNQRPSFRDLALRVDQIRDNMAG
As to the kind of experiment: In vitro JAK kinase assay (HTRF, phosphorylation of a biotinylated peptide), JAK2. The note with it: method AA1 (30 μM ATP) or AA2 (1000 μM ATP), not stated per value. An outline of the steps: as §1

The target in assay [3] is T3, Recombinant Human Anaplastic Lymphoma Kinase (Homo sapiens, UniProt Q9UM73).
T3 construct: purchased Invitrogen, Carlsbad, Calif
T3 sequence (Q9UM73 19-1620): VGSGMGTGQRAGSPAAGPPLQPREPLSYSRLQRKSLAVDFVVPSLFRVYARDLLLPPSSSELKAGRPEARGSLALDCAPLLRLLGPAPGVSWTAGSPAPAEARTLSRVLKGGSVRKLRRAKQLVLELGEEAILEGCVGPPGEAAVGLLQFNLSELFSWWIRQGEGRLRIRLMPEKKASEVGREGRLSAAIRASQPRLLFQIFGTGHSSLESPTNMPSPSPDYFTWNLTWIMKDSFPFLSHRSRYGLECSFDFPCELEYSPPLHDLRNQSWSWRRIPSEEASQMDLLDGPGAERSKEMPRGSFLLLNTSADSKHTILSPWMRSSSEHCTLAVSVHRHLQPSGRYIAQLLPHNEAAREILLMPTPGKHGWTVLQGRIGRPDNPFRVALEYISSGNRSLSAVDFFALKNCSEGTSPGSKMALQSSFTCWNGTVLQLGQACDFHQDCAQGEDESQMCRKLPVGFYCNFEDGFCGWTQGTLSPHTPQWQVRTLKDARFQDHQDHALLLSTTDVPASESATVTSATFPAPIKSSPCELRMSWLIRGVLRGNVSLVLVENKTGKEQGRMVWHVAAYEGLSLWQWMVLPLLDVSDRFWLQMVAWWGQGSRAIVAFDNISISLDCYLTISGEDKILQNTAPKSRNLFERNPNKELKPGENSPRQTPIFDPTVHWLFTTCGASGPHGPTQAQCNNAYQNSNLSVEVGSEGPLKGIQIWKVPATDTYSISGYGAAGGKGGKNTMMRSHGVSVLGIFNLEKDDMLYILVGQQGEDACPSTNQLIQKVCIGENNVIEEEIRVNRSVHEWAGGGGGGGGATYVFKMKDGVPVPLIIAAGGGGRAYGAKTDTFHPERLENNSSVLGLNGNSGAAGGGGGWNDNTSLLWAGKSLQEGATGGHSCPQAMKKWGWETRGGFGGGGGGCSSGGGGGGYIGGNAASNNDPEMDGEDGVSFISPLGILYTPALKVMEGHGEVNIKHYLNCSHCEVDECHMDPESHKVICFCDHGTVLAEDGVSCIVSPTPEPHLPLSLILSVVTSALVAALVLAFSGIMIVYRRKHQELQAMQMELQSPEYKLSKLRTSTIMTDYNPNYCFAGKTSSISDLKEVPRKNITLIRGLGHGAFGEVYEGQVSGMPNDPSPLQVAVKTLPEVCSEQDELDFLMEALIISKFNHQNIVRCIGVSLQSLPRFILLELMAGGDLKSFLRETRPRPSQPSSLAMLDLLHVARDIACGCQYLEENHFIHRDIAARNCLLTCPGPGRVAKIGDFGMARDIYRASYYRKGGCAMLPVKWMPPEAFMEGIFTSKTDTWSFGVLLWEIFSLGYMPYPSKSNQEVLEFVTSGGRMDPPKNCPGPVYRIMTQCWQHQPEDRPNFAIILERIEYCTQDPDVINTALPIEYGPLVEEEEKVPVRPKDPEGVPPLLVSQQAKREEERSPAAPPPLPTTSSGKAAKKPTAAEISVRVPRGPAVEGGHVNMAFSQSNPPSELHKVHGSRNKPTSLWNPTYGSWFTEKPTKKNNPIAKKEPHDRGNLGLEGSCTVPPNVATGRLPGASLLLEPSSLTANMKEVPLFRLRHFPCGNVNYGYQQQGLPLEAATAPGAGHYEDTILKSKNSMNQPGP
Put plainly: ALK HTRF kinase assay. The settings on record: 90 μM ATP; for ALK % of inhibition at a concentration of 500 nM or 1 mM: compound at 500 nM or 1 mM. An outline of the steps: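 Compounds were incubated with recombinant human ALK and a biotin-tagged peptide substrate. Product was captured with streptavidin-APC and probed with a europium anti-phosphotyrosine antibody, and plates were read for time-resolved fluorescence. Dose-response data were fitted to derive IC50.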

Assay [4] concerns the target T4, human JAK1 (a.a. 837-1142) (Homo sapiens, UniProt P23458).
T4 construct: human JAK1 (a.a. 837-1142); His tag (N); made in house; host or cells: insect cells (baculovirus)
Put plainly: In vitro JAK kinase assay (HTRF, phosphorylation of a biotinylated peptide), JAK1. The settings on record: method AA1 (90 μM ATP) or AA2 (1000 μM ATP), not stated per value; read-out: JAK1 IC50. The procedure, abridged:
as §1

The next assay has as its target TYK2 (Homo sapiens, UniProt P29597). Put plainly: TYK2 kinase inhibition (Table A1).

Chain of TYK2 (P29597 whole entry): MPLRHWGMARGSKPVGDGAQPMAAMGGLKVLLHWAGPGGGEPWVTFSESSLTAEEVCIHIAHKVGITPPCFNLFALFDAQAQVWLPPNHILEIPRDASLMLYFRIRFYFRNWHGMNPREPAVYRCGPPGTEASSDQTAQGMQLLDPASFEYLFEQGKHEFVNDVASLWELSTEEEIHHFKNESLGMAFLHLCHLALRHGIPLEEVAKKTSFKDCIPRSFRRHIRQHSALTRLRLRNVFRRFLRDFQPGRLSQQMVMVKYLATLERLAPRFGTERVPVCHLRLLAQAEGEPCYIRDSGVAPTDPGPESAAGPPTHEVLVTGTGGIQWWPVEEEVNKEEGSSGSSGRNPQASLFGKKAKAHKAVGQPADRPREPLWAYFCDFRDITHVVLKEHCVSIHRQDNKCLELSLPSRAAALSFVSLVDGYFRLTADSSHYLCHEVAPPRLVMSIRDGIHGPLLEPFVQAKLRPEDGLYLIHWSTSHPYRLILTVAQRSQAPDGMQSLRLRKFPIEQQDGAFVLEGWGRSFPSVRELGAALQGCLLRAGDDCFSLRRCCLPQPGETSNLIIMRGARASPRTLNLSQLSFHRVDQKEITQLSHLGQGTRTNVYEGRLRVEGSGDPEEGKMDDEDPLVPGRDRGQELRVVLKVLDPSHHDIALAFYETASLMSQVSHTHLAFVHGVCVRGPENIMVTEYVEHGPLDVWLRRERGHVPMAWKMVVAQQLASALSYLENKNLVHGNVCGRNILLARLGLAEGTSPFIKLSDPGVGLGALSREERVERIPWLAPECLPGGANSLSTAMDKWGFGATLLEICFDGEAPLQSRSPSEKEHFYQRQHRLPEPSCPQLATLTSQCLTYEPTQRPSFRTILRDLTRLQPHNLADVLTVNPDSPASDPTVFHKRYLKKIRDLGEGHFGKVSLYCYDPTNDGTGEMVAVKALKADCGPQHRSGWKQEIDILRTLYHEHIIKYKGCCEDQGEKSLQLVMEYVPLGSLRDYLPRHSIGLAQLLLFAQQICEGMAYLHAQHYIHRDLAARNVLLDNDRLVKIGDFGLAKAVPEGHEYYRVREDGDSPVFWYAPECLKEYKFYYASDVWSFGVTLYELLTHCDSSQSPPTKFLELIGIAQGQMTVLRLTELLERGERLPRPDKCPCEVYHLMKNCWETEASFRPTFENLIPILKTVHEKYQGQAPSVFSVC
T4 sequence (P23458 849-1154): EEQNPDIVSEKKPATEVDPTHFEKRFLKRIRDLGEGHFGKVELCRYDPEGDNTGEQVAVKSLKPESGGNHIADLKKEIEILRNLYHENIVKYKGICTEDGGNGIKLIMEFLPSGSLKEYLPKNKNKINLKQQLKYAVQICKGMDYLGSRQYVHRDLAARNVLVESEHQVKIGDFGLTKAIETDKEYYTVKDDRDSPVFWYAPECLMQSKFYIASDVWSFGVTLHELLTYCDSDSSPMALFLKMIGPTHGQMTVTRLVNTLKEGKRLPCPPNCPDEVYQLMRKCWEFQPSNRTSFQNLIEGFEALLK

For `COc1cc2cc(c1)Nc1nc(ncc1Cl)Nc1cccc(c1)CC2` [Example A21, 6-Chloro-11-methoxy-2,4,8,22-tetraazatetracyclo[14.3.1.1(3,7).1(9,13)]docosa-1(20),3(22),4,6,9(21),10,12,16,18-nonaene trifluoroacetate], the IC50 – broadly, the point on the concentration scale where inhibition reaches its midpoint – in assay [1] worked out at 26 nM; in assay [2] it was 6.2 nM; in assay [4], 57 nM; against TYK2, 98 nM. In assay [3], the “ALK % of inhibition at a concentration of 500 nM or 1 mM” value (“ALK % of inhibition” below) stood at 65%.
For `Oc1cc2cc(c1)Nc1nc(ncc1Cl)Nc1cccc(c1)CC2` [Example A22, 6-Chloro-2,4,8,22-tetraazatetracyclo[14.3.1.1(3,7).1(9,13)]docosa-1(20),3(22),4,6,9(21),10,12,16,18-nonaen-11-ol trifluoroacetate], in that order: 10 nM, 6.2 nM, 11 nM, 22 nM and 54%.
For the compound `NC(=O)COc1cc2cc(c1)Nc1nc(ncc1Cl)Nc1cccc(c1)CC2` [Example A23, 2-{[6-Chloro-2,4,8,22-tetraazatetracyclo[14.3.1.1(3,7).1(9,13)]docosa-1(20),3(22),4,6,9(21),10,12,16,18-nonaen-11-yl]oxy}acetyl)acetamide trifluoroacetate], the IC50 is 22 nM in assay [1], 1 nM in assay [2], 12 nM in assay [4] and 37 nM against TYK2. Besides, the “ALK % of inhibition” value in assay [3] amounted to 33%.
`O=C(COc1cc2cc(c1)Nc1nc(ncc1Cl)Nc1cccc(c1)CC2)Nc1ccccc1` [Example A24, 2-{[6-Chloro-2,4,8,22-tetraazatetracyclo[14.3.1.1(3,7).1(9,13)]docosa-1(20),3(22),4,6,9(21),10,12,16,18-nonaen-11-yl]oxy}-N-phenylacetamide trifluoroacetate]: the IC50 in assay [1] came out at 58 nM; in assay [2] it was 4.3 nM; in assay [4], 47 nM; on TYK2, 139 nM. The “ALK % of inhibition” value in assay [3] was found to be 11%.
Consider `Oc1ccc2cc1Nc1nc(ncc1Cl)Nc1cccc(c1)CC2` [Example A26, 6-Chloro-2,4,8,22-tetraazatetracyclo[14.3.1.1(3,7).1(9,13)]docosa-1(20),3(22),4,6,9(21),10,12,16,18-nonaen-10-ol trifluoroacetate], for which the IC50 was 9.2 nM in assay [1]; 11 nM in assay [2]; 350 nM in assay [3]; 36 nM in assay [4]; 45 nM against TYK2.
Turning to `CC(C)(C)OC(=O)N1CCC(C(=O)Nc2ccc3cc2CCc2cccc(c2)Nc2ncc(Cl)c(n2)N3)CC1` [Example A27, tert-Butyl 4-({[6-chloro-2,4,8,22-tetraazatetracyclo[14.3.1.1(3,7).1(9,13)]docosa-1(20),3(22),4,6,9(21),10,12,16,18-nonaen-12-yl]amino}carbonyl)piperidine-1-carboxylate trifluoroacetate], the 50% inhibitory concentration (IC50) in assay [1] worked out at 124 nM; in assay [2], 56 nM; in assay [4] it was 61 nM; against TYK2 it was 43 nM. Moreover, the “ALK % of inhibition” value in assay [3] was 21%.
Take `O=C(Nc1ccc2cc1CCc1cccc(c1)Nc1ncc(Cl)c(n1)N2)C1CCNCC1` [Example A28, N-[6-Chloro-2,4,8,22-tetraazatetracyclo[14.3.1.1(3,7).1(9,13)]docosa-1(20), 3(22),4,6,9(21),10,12,16,18-nonaen-12-yl]piperidine-4-carboxamide bis(trifluoroacetate)]: the IC50 in assay [1] came to 99 nM; in assay [2] it was 61 nM; in assay [4], 56 nM; at TYK2 it was 175 nM. In assay [3], the “ALK % of inhibition” value turned out to be 30%.
For `CC(=O)N1CCC(C(=O)Nc2ccc3cc2CCc2cccc(c2)Nc2ncc(Cl)c(n2)N3)CC1` [Example A29, 1-Acetyl-N-[6-chloro-2,4,8,22-tetraazatetracyclo[14.3.1.1(3,7).1(9,13)]docosa-1(20),3(22),4,6,9(21),10,12,16,18-nonaen-12-yl]piperidine-4-carboxamide trifluoroacetate] the same measures were 31 nM, 31 nM, 42 nM, 65 nM and 30%.
For `O=C(Nc1ccc2cc1CCc1cccc(c1)Nc1ncc(Cl)c(n1)N2)C1CCN(C(=O)c2ccccc2)CC1` [Example A30, 1-Benzoyl-N-[6-chloro-2,4,8,22-tetraazatetracyclo[14.3.1.1(3,7).1(9,13)]docosa-1(20),3(22),4,6,9(21),10,12,16,18-nonaen-12-yl]piperidine-4-carboxamide trifluoroacetate], in that order: 110 nM, 45 nM, 28 nM, 84 nM and 34%.
For `O=C(Nc1ccc2cc1CCc1cccc(c1)Nc1ncc(Cl)c(n1)N2)C1CCN(C(=O)c2ccc3c(c2)OCO3)CC1` [Example A31, 1-(1,3-Benzodioxol-5-ylcarbonyl)-N-[6-chloro-2,4,8,22-tetraazatetracyclo[14.3.1.1(3,7).1(9,13)]docosa-1(20),3(22),4,6,9(21),10,12,16,18-nonaen-12-yl]piperidine-4-carboxamide trifluoroacetate] the same measures were 108 nM, 49 nM, 42 nM, 115 nM and 26%.
Take `O=C(Nc1ccc2cc1CCc1cccc(c1)Nc1ncc(Cl)c(n1)N2)C1CCN(C(=O)c2ccco2)CC1` [Example A32, N-[6-Chloro-2,4,8,22-tetraazatetracyclo[14.3.1.1(3,7).1(9,13)]docosa-1(20), 3(22),4,6,9(21),10,12,16,18-nonaen-12-yl]-1-(2-furoyl)piperidine-4-carboxamide trifluoroacetate]: the concentration for half-maximal inhibition (IC50) turned out to be 35 nM in assay [1], 29 nM in assay [2], 30 nM in assay [4] and 66 nM on TYK2. The “ALK % of inhibition” value in assay [3] is 30%.
For `N#Cc1ccc(C(=O)N2CCC(C(=O)Nc3ccc4cc3CCc3cccc(c3)Nc3ncc(Cl)c(n3)N4)CC2)cc1` [Example A33, N-[6-Chloro-2,4,8,22-tetraazatetracyclo[14.3.1.1(3,7).1(9,13)]docosa-1(20), 3(22),4,6,9(21),10,12,16,18-nonaen-12-yl]-1-(4-cyanobenzoyl)piperidine-4-carboxamide trifluoroacetate] the same measures were 102 nM, 38 nM, 30 nM, 75 nM and 26%.
As for `Cc1noc(C)c1C(=O)N1CCC(C(=O)Nc2ccc3cc2CCc2cccc(c2)Nc2ncc(Cl)c(n2)N3)CC1` [Example A34, N-[6-Chloro-2,4,8,22-tetraazatetracyclo[14.3.1.1(3,7).1(9,13)]docosa-1(20), 3(22),4,6,9(21),10,12,16,18-nonaen-12-yl]-1-[(3,5-dimethylisoxazol-4-yl)carbonyl]piperidine-4-carboxamide trifluoroacetate], the IC50 is > 1000 nM in assay [1], 220 nM in assay [2], 446 nM in assay [4] and 343 nM on TYK2. Further, the “ALK % of inhibition” value in assay [3] was found to be 5%.
As to `O=C(Nc1ccc2cc1CCc1cccc(c1)Nc1ncc(Cl)c(n1)N2)C1CCN(C(=O)Cc2ccccc2)CC1` [Example A35, N-[6-Chloro-2,4,8,22-tetraazatetracyclo[14.3.1.1(3,7).1(9,13)]docosa-1(20),3(22),4,6,9(21),10,12,16,18-nonaen-12-yl]-1-(phenylacetyl)piperidine-4-carboxamide trifluoroacetate], the IC50 is 82 nM in assay [1], 62 nM in assay [2], 42 nM in assay [4] and 228 nM against TYK2. The “ALK % of inhibition” value in assay [3] came out at 38%.
For `O=C(Nc1ccc2cc1CCc1cccc(c1)Nc1ncc(Cl)c(n1)N2)C1CCN(C(=O)Nc2ccccc2)CC1` [Example A36, N(4)-[6-Chloro-2,4,8,22-tetraazatetracyclo[14.3.1.1(3,7).1(9,13)]docosa-1(20),3(22),4,6,9(21),10,12,16,18-nonaen-12-yl]-N(1)-phenylpiperidine-1,4-dicarboxamide trifluoroacetate] the same measures were 26 nM, 6.7 nM, 2.4 nM, 27 nM and 48%.
